In patent US20250332173A1, “COMPOUNDS AND METHODS FOR MODULATING NUCLEIC ACID SPLICING” (REMIX THERAPEUTICS INC., priority 2021, published 2025):
Where two headings read alike, the source gives them in different places.

How the values were obtained:
[1] = system: K562 (human chronic myelogenous leukemia) cells; experiment: Cell Titer Glo 2.0 cell viability assay; assay type: cell-based; conditions: Homo sapiens, K562, 72 h, K562 cells, 72 hours, Cell Titer Glo 2.0; read-out: K562 GI50
HTT mRNA = experiment: RT-qPCR splicing assay, HTT canonical junction (CJ) and alternative junction (AJ) mRNA; assay type: cell-based, human; conditions: Homo sapiens; for AC50: increase in HTT alternative junction (AJ) mRNA, read-out: HTT AJ AC50
Summary of the method: (§1)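 Read-out is one-step RT-qPCR on cell lysates detecting the exon-exon junction of each isoform, normalized to a housekeeping gene (PPIA in A673, GAPDH or GUSB in K562).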

MYB mRNA = experiment: RT-qPCR splicing assay, MYB canonical junction (CJ) and alternative junction (AJ) mRNA; assay type: cell-based, human; conditions: Homo sapiens; for AC50: increase in MYB alternative junction (AJ) mRNA, read-out: MYB AJ AC50
Summary of the method: as §1

[2] = decrease in HTT canonical junction (CJ) mRNA, RT-qPCR, read-out: HTT CJ IC50
[3] = Table 5 panel, canonical junction qPCR, compound concentration having 50% response in CJ decrease, read-out: HTT IC50 (decrease in CJ mRNA levels)
[4] = Table 5 panel, canonical junction qPCR, compound concentration having 50% response in CJ decrease, read-out: MYB IC50 (decrease in CJ mRNA levels)
[5] = decrease in MYB canonical junction (CJ) mRNA, RT-qPCR, read-out: MYB CJ IC50

Compound	GI50 [1]	IC50 (HTT mRNA; [2])	AC50 (HTT mRNA; RT-qPCR)	IC50 (HTT mRNA; [3])	IC50 (MYB mRNA; [4])	IC50 (MYB mRNA; [5])	AC50 (MYB mRNA; RT-qPCR)
Cn1cc2cc(-n3cnc4cc(C5=CC6CCC(C5)N6)ccc4c3=O)ccc2n1 (stereo not drawn) [Compound 160]	> 10 µM	> 10 µM	> 10 µM	> 10 µM	> 10 µM	> 10 µM	> 10 µM
Cc1cn2cc(-c3ccc4c(=O)n([C@H]5CCNC5)cc(C)c4c3)cc(C#N)c2n1 [Compound 456, (S)-2-methyl-6-(4-methyl-1-oxo-2-(pyrrolidin-3-yl)-1,2-dihydroisoquinolin-6-yl)imidazo[1,2-a]pyridine-8-carbonitrile]	> 10 µM	> 10 µM	> 10 µM	> 10 µM	> 10 µM	> 10 µM	> 10 µM
Cc1cn2nc(-c3cc4ccn(C5CCNCC5)c(=O)c4cc3O)cc(C)c2n1 [Compound 448, 6-{2,8-dimethylimidazo[1,2-b]pyridazin-6-yl}-7-hydroxy-2-(piperidin-4-yl)isoquinolin-1-one]	< 0.1 µM	< 0.1 µM	< 0.1 µM	< 0.1 µM	< 0.1 µM	< 0.1 µM	< 0.1 µM
Cc1cn2cc(-c3cc(F)c4c(=O)n(C5CCNCC5)ccc4c3)cc(F)c2n1 [Compound 370]	< 0.1 µM	< 0.1 µM	< 0.1 µM	< 0.1 µM	< 0.1 µM	< 0.1 µM	< 0.1 µM
Cc1cn2nc(-c3ccc4c(=O)n(C5CCNC6(CC6)C5)ccc4c3)cc(C)c2n1 (stereo not drawn) [Compound 384]	0.1 to 1 µM	< 0.1 µM	< 0.1 µM	< 0.1 µM	< 0.1 µM	< 0.1 µM	< 0.1 µM
Cc1cn2nc(-c3ccc4c(=O)n([C@H]5CCNC[C@H]5F)cnc4c3)cc(C)c2n1 [Compound 372]	1 to 10 µM	0.1 to 1 µM	0.1 to 1 µM	0.1 to 1 µM	0.1 to 1 µM	0.1 to 1 µM	0.1 to 1 µM
CCN1CCC(n2ccc3cc(-c4cc(C)c5nc(C)cn5n4)ccc3c2=O)CC1 [Compound 402, 6-{2,8-dimethylimidazo[1,2-b]pyridazin-6-yl}-2-(1-ethylpiperidin-4-yl)isoquinolin-1-one]	0.1 to 1 µM	0.1 to 1 µM	0.1 to 1 µM	0.1 to 1 µM	< 0.1 µM	0.1 to 1 µM	< 0.1 µM
Cc1cn2nc(-c3cc(F)c4c(=O)n([C@H]5CCNC6(CC6)C5)ccc4c3)cc(C)c2n1 (single isomer, unassigned) [Compound 426]	< 0.1 µM	< 0.1 µM	< 0.1 µM	< 0.1 µM	< 0.1 µM	< 0.1 µM	< 0.1 µM
Cn1cc2cc(-n3cnc4cc(C5CCNCC5)ccc4c3=O)ccc2n1 [Compound 172]	1 to 10 µM	> 10 µM	> 10 µM	> 10 µM	> 10 µM	> 10 µM	> 10 µM
Cc1cn2nc(-c3cc(O)c4c(=O)n(C5CCNC5)cc(C)c4c3)cc(C)c2n1 (stereo not drawn) [Compound 462]	1 to 10 µM	1 to 10 µM	1 to 10 µM	1 to 10 µM	1 to 10 µM	1 to 10 µM	1 to 10 µM
Cc1cn2nc(-c3cc(F)c4c(=O)n([C@@H]5CCNC6(CC6)C5)ccc4c3)cc(C)c2n1 (single isomer, unassigned) [Compound 425]	< 0.1 µM	< 0.1 µM	< 0.1 µM	< 0.1 µM	< 0.1 µM	< 0.1 µM	< 0.1 µM
CC(=O)c1cc(-c2cc(F)c3c(=O)n(C4CCNCC4)ccc3c2)cn2cc(C)nc12 [Compound 393, 6-{8-acetyl-2-methylimidazo[1,2-a]pyridin-6-yl}-8-fluoro-2-(piperidin-4-yl)isoquinolin-1-one 2,2,2-trifluoroacetate]	0.1 to 1 µM	1 to 10 µM	0.1 to 1 µM	0.1 to 1 µM	0.1 to 1 µM	0.1 to 1 µM	0.1 to 1 µM
Cc1cc(-c2ccc3c(=O)n(C4CCNC5(COC5)C4)cnc3c2)cc2cn(C)nc12 (stereo not drawn) [Compound 375]	1 to 10 µM	1 to 10 µM	1 to 10 µM	1 to 10 µM	1 to 10 µM	1 to 10 µM	1 to 10 µM
Cn1cc2cc(-c3cc(F)c4c(=O)n(C5CCNCC5)ccc4c3)cc(C#N)c2n1 [Compound 394, 5-(8-fluoro-1-oxo-2-(piperidin-4-yl)-1,2-dihydroisoquinolin-6-yl)-2-methyl-2H-indazole-7-carbonitrile]	< 0.1 µM	< 0.1 µM	< 0.1 µM	< 0.1 µM	< 0.1 µM	< 0.1 µM	< 0.1 µM
Cc1cn2cc(-c3cc(F)c4c(=O)n(C5CCOCC5)cnc4c3)cc(C#N)c2n1 [Compound 367, 6-[5-fluoro-3-(oxan-4-yl)-4-oxoquinazolin-7-yl]-2-methylimidazo[1,2-a]pyridine-8-carbonitrile]	0.1 to 1 µM	0.1 to 1 µM	0.1 to 1 µM	0.1 to 1 µM	0.1 to 1 µM	0.1 to 1 µM	0.1 to 1 µM
Cn1cc2cc(-c3cc(F)c4c(=O)n(C5CCNC6(CC6)C5)ccc4c3)c(O)cc2n1 (stereo not drawn) [Compound 414, 2-{4-azaspiro[2.5]octan-7-yl}-8-fluoro-6-(6-hydroxy-2-methylindazol-5-yl)isoquinolin-1-one]	> 10 µM	1 to 10 µM	1 to 10 µM	1 to 10 µM	1 to 10 µM	1 to 10 µM	1 to 10 µM
Cc1nc2c(F)cc(-c3cc(F)c4c(=O)n(C5CCNC6(CC6)C5)ccc4c3)cc2n1C (stereo not drawn) [Compound 430, 8-fluoro-6-(4-fluoro-1,2-dimethyl-1H-benzo[d]imidazol-6-yl)-2-(4-azaspiro[2.5]octan-7-yl)isoquinolin-1(2H)-one]	1 to 10 µM	> 10 µM	> 10 µM	> 10 µM	> 10 µM	> 10 µM	> 10 µM
Cn1cc2c(n1)CCN(c1cc(F)c3c(=O)n(C4CCNCC4)cnc3c1)C2 [Compound 365, 5-fluoro-7-(2-methyl-2,4,6,7-tetrahydro-5H-pyrazolo[4,3-c]pyridin-5-yl)-3-(piperidin-4-yl)quinazolin-4(3H)-one]	> 10 µM	> 10 µM	> 10 µM	> 10 µM	1 to 10 µM	1 to 10 µM	1 to 10 µM
Cc1cn2nc(-c3ccc4c(=O)n([C@H]5CCNC6(CC6)C5)ncc4c3)cc(C)c2n1 [Compound 369, 2-[(7S)-4-azaspiro[2.5]octan-7-yl]-6-{2,8-dimethylimidazo[1,2-b]pyridazin-6-yl}phthalazin-1-one]	1 to 10 µM	< 0.1 µM	< 0.1 µM	< 0.1 µM	< 0.1 µM	< 0.1 µM	< 0.1 µM
Cc1cn2nc(-c3cc(C)c4c(=O)n(C5CCNC6(CC6)C5)ccc4c3)cc(C)c2n1 (stereo in doubt) [Compound 397, (S)-6-(2,8-dimethylimidazo[1,2-b]pyridazin-6-yl)-8-methyl-2-(4-azaspiro[2.5]octan-7-yl)isoquinolin-1(2H)-one]	0.1 to 1 µM	< 0.1 µM	< 0.1 µM	< 0.1 µM	0.1 to 1 µM	< 0.1 µM	0.1 to 1 µM
Cc1cn2nc(-c3ccc4c(=O)n([C@@H]5CCNC[C@H]5F)ncc4c3)cc(C)c2n1 [Compound 379]	1 to 10 µM	0.1 to 1 µM	0.1 to 1 µM	0.1 to 1 µM	0.1 to 1 µM	0.1 to 1 µM	0.1 to 1 µM
Cc1nc2c(C)cc(-c3cc(F)c4c(=O)n(C5CCNC6(CC6)C5)ccc4c3)cc2o1 (stereo not drawn) [Compound 418, 2-{4-azaspiro[2.5]octan-7-yl}-6-(2,4-dimethyl-1,3-benzoxazol-6-yl)-8-fluoroisoquinolin-1-one]	0.1 to 1 µM	< 0.1 µM	< 0.1 µM	< 0.1 µM	< 0.1 µM	< 0.1 µM	< 0.1 µM
Cc1cc(-c2cc(F)c3c(=O)n(C4CCNC5(CC5)C4)ccc3c2)nc2cn(C)nc12 (stereo not drawn) [Compound 431]	0.1 to 1 µM	< 0.1 µM	< 0.1 µM	< 0.1 µM	< 0.1 µM	< 0.1 µM	< 0.1 µM
Cc1cn2nc(-c3cc(F)c4c(=O)n([C@@H]5CCNC6(CC6)C5)ncc4c3)cc(C)c2n1 [Compound 446]	0.1 to 1 µM	< 0.1 µM	< 0.1 µM	< 0.1 µM	< 0.1 µM	< 0.1 µM	< 0.1 µM
Cn1cc2cc(-n3cnc4cc(NC5CCNCC5)ccc4c3=O)ccc2n1 [Compound 162]		> 10 µM	> 10 µM	> 10 µM	> 10 µM	> 10 µM	> 10 µM
